Results reported in patent US20030215462A1, “Use of UGT inhibitors to increase bioavailability” (priority 2001, published 2003).
Where “and” joins values, the source holds several entries; their conditions need not be identical. Equal values may be shown once.

How the values were obtained:
[1] = system: T1, UGT enzymes of human liver microsomes; assay: Kinetic and Ki studies of inhibitors of 7-HFC glucuronidation in human liver microsomes; format: biochemical; details: 7-HFC 20-500 μM
T1 construct: percentage of control metabolism, 7-HFC glucuronidation; percentage of control metabolism, 7-HFC glucuronidation

[2] = system: T2, UGT enzymes of human liver microsomes; assay: Inhibition of labetalol glucuronidation (LG1, LG2) in human liver microsomes; format: biochemical; details: labetalol 50 μM
T2 construct: residual metabolism (percentage of control), labetalol LG1; other: labetalol 50 μM; residual metabolism (percentage of control), labetalol LG1; residual metabolism (percentage of control), labetalol LG2; inhi
Protocol: Supernatants were analyzed by HPLC with fluorescence detection.
Compounds were eluted using a binary solvent gradient system where solvent A was 5:5:90 tetrahydrofuran-acetonitrile-(NH4)2HPO4 50 mM, while solvent B was 25:25:50 tetrahydrofuran-acetonitrile-(NH4)2HPO4 50 mM. Solvent flow rate was 0.75 ml/min and the column temperature was ambient. […] Labetalol and metabolites were measured by fluorescence detection using a Jasco model FP920 detector. Excitation and emission wavelengths were 370 nm 418 nm respectively. Retention times for salicylamide internal standard and labetalol were 6.6 min and 15.0 min respectively.

[3] = target: T3, UGT enzymes of human liver microsomes (Homo sapiens, UniProt P16662); assay: Inhibition of zidovudine glucuronidation in human liver microsomes; format: biochemical; details: liver lot 062101
T3 construct: residual metabolism (percentage of control), zidovudine glucuronidation; other: liver lot 062101; residual metabolism (percentage of control), zidovudine glucuronidation; residual metabolism (percentage of control)
T3 sequence (P16662 1-529): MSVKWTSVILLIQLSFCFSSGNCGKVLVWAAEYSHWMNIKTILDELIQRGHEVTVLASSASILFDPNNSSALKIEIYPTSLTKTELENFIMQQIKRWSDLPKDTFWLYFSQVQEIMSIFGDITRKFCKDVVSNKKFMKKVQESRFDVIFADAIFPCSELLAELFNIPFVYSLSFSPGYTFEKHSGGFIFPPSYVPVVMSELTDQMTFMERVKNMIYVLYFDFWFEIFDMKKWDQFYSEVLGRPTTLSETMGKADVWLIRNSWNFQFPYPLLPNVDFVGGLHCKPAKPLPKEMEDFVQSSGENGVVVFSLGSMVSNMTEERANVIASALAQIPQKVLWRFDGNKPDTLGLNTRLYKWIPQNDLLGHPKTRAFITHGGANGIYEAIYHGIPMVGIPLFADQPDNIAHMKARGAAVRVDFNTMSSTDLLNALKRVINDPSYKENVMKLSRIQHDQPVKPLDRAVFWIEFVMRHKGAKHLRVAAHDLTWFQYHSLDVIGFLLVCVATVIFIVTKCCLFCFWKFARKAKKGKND
Protocol: Compounds were eluted using a binary solvent gradient system where solvent A was dilute phosphoric acid (pH 3) and solvent B was acetonitrile.
Standardized incubations utilized 500 μM zidovudine substrate, 1 mg/ml microsomal protein, 5 mM UDPGA and a 30 min incubation time. […] Int.

[4] = system: T4, UGT enzymes of human liver microsomes; assay: Inhibition of estradiol (E2) glucuronidation in human liver microsomes; format: biochemical; details: liver 032101, E2 50 μM
T4 construct: residual metabolism (% of control), E2-3-β-D-glucuronide; other: liver 032101; residual metabolism (% of control), E2-3-β-D-glucuronide
Description: (§1) Compounds were eluted using a binary solvent gradient system where solvent A was dilute phosphoric acid (pH 3) and solvent B was 80:20 acetonitrile-methanol. […] Detection was at 280 nm.

[5] = system: UGT enzymes of pooled human jejunum microsomes; assay: Inhibition of estradiol (E2) glucuronidation in pooled human jejunum microsomes; format: biochemical; details: jejunum HJ61, E2 50 μM
Description: as §1

UGT1A1 = target: T5, UGT1A1 (Homo sapiens, UniProt P22309); assay: Inhibition of raloxifene glucuronidation by recombinant UGT1A1 Supersomes; details: UGT1A1
T5 sequence (P22309 26-533): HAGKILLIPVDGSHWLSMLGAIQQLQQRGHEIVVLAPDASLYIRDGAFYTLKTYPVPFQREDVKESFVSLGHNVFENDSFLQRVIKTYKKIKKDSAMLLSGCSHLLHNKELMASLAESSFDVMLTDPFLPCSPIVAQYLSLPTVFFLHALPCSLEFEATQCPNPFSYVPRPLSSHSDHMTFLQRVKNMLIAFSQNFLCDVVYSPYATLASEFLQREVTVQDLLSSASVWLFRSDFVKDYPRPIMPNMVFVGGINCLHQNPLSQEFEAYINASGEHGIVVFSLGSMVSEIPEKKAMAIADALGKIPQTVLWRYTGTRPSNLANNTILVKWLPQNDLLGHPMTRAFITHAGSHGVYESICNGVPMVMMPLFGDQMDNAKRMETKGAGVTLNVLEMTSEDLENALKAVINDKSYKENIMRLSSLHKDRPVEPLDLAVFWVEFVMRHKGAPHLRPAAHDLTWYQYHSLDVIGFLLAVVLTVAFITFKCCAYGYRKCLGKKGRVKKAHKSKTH
Protocol: (§2) Compounds were eluted using a binary solvent gradient system. Solvent A was water brought to pH 8 with NH4OH. Solvent B was methanol. Solvent flow rate was 1 ml/min and the column temperature was maintained at 50° C. Detection was at 280 nm. […] The system was then returned to the initial conditions and equilibrated for 3 min.

UGT1A8 = target: T6, UGT1A8 (Homo sapiens, UniProt Q9HAW9); assay: Inhibition of raloxifene glucuronidation by recombinant UGT1A8 Supersomes; details: UGT1A8
T6 sequence (Q9HAW9 26-530): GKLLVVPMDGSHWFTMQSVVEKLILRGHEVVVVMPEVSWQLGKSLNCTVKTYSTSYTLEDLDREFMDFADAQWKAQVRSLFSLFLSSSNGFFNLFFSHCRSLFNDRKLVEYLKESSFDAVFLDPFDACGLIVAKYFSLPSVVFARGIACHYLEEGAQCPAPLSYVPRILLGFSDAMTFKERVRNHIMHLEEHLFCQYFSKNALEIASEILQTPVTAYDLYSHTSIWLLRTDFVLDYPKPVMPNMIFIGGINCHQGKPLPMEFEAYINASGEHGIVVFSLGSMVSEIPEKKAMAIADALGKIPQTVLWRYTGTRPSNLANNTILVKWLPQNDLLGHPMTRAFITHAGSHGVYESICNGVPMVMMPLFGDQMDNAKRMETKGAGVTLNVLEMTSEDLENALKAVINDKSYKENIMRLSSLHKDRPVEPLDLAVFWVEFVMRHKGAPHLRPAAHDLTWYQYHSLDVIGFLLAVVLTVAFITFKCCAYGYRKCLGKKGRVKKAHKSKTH
Protocol: as §2

SMILES	residual metabolism (percentage of control), labetalol LG1 ([2]; inhibitor 50 μM)	residual metabolism (percentage of control), labetalol LG2 ([2]; inhibitor 50 μM)	residual metabolism (percentage of control), labetalol LG1 ([2]; inhibitor 100 μM)	residual metabolism (percentage of control), labetalol LG2 ([2]; inhibitor 100 μM)	residual metabolism (percentage of control), zidovudine glucuronidation ([3]; inhibitor 500 μM)	residual metabolism (% of control), E2-3-β-D-glucuronide ([4]; inhibitor 100 μM)	residual metabolism (% of control), E2-3-β-D-glucuronide ([5]; inhibitor 100 μM)	residual metabolism (percentage of control), zidovudine glucuronidation ([3]; inhibitor 100 μM)	residual metabolism (percentage of control), zidovudine glucuronidation ([3]; inhibitor 200 μM)	residual metabolism (% of control), E2-3-β-D-glucuronide ([4]; inhibitor 50 μM)	residual metabolism (% of control), E2-3-β-D-glucuronide ([5]; inhibitor 50 μM)	residual metabolism (% of control), E2-17-β-D-glucuronide ([5]; inhibitor 50 μM)	other results
O=C(O)c1cc(-c2ccc(F)cc2F)ccc1O [Diflunisal, reference compound]	92 (4) %	80 (3) %	80 (6) % and 86 (5) %	70 (4) % and 73 (2) %	74 (2) %	49 (1), obs %	62 (3), obs %	–	–	–	–	–	Vmax of 7-HFC glucuronidation (fit of the experiment with this inhibitor) [1]: 62 ± 4 nmol/min/mg; Km ([1]; read-out: Km of 7-HFC glucuronidation (fit of the experiment with this inhibitor)): 92 ± 9 µM; residual metabolism (percentage of control), zidovudine glucuronidation ([3]; inhibitor 1000 μM): 43 (2) %
O=C(O[C@@H]1Cc2c(O)cc(O)cc2O[C@@H]1c1ccc(O)c(O)c1)c1cc(O)c(O)c(O)c1 [Epicatechin gallate]	–	–	74 (1) %	86 (2) %	28 (1) %	–	–	67 (1) %	60 (2) %	27 (1) %	26 (1) %	61 (4) %	residual metabolism (percentage of control), zidovudine glucuronidation ([3]; inhibitor 50 μM): 80 (1) %
O=c1c(O)c(-c2ccc(O)c(O)c2)oc2cc(O)cc(O)c12 [Quercetin]	78 (4) %	70 (3) %	56 (8) % and 49 (7) %	47 (6) % and 43 (9) %	–	10 (1) %	12 (1) %	94 (8) %	64 (4) %	29 (1) %	29 (2) %	56 (2) %	inhibition of raloxifene glucuronidation, in words (UGT1A1): good inhibitor; inhibition of raloxifene glucuronidation, in words (UGT1A8): ineffective; residual metabolism (% of control), E2-3-β-D-glucuronide ([5]; inhibitor 25 μM): 44 (5) %; residual metabolism (% of control), E2-17-β-D-glucuronide ([5]; inhibitor 25 μM): 72 (3) %; residual metabolism (% of control), E2-17-β-D-glucuronide ([5]; inhibitor 100 μM): 42 (7) %
